Reference: BindingDB's records for patent US11026923 (H. Lundbeck, 2021)
pIC50: −log10 of the molar value.

Columns and labels:
Assay in all cases: Inhibition Assay
[1] = target: Dual specificity calcium/calmodulin-dependent 3',5'-cyclic nucleotide phosphodiesterase 1B (Homo sapiens, UniProt Q01064)
Experimental: (§1) Reactions were initiated by addition of the cyclic nucleotide substrate, and reactions were allowed to proceed for 1 hr at room temperature before being terminated through mixing with 20 uL (0.2 mg) yttrium silicate SPA beads (PerkinElmer).

[2] = target: Dual specificity calcium/calmodulin-dependent 3',5'-cyclic nucleotide phosphodiesterase 1A (Human, UniProt P54750)
Experimental: as §1

[3] = target: Dual specificity calcium/calmodulin-dependent 3',5'-cyclic nucleotide phosphodiesterase 1C (Human, UniProt Q14123)
Chain of Dual specificity calcium/calmodulin-dependent 3',5'-cyclic nucleotide phosphodiesterase 1C (Q14123 whole entry): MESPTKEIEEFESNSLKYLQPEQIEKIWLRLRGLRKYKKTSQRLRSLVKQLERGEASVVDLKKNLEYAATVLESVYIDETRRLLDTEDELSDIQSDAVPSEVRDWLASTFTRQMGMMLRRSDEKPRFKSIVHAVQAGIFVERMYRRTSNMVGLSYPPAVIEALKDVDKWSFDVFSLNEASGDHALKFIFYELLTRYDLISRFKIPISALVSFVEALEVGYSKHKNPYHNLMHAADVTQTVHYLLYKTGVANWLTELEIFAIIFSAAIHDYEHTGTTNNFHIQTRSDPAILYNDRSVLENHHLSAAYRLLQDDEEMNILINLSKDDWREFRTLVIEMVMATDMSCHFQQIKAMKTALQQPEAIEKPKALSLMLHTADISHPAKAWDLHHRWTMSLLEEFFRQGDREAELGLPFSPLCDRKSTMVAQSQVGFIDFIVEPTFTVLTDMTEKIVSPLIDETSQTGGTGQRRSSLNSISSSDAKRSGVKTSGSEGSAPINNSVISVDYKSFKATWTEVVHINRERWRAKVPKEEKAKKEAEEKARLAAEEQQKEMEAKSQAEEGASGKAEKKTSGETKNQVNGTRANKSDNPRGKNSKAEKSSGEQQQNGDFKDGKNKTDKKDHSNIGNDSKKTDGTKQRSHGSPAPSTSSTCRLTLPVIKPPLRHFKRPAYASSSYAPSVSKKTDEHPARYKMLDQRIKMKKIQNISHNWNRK
Experimental: as §1

Chain of Dual specificity calcium/calmodulin-dependent 3',5'-cyclic nucleotide phosphodiesterase 1B (Q01064 whole entry): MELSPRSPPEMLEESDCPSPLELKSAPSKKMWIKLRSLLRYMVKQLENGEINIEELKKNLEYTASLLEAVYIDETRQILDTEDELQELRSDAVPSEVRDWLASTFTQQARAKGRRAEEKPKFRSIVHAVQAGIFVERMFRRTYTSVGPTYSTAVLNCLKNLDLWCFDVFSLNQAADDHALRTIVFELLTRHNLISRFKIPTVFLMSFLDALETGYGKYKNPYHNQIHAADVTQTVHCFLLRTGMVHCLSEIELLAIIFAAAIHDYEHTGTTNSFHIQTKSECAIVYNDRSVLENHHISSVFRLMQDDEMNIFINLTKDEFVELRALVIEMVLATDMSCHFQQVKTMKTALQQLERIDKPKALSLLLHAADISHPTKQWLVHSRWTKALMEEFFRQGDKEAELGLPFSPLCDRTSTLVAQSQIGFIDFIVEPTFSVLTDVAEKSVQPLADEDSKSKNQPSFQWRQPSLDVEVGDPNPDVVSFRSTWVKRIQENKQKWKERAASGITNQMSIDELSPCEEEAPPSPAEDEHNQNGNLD
Chain of Dual specificity calcium/calmodulin-dependent 3',5'-cyclic nucleotide phosphodiesterase 1A (P54750 whole entry): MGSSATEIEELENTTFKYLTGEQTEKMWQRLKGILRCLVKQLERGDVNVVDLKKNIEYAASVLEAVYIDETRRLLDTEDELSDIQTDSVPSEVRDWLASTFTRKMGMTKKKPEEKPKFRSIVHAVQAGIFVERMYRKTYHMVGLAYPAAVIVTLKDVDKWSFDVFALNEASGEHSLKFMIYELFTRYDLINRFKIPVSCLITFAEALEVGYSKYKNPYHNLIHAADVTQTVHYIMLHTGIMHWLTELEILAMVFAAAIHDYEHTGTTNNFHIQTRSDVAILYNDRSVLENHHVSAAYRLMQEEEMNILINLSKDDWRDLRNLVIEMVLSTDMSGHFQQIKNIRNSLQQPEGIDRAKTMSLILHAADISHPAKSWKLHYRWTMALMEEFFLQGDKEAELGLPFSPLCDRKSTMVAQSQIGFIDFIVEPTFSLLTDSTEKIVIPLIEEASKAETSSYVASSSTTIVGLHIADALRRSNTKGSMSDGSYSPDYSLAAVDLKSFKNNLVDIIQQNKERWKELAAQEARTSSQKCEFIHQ

SMILES	pIC50 [1]	pIC50 [2]	pIC50 [3]
COc1ccccc1/C=C/C(NCc1cnn(C)c1)=C1\CC(C)=NN1C(C)C [US11026923, Example 63]	8.03	7.19	7.70
CC1=NN(C(C)C)/C(=C(/C=C/c2cnn(C)c2C)NCc2cnn(C)c2)C1 [US11026923, Example 66]	7.23	6.68	6.66
CC1=NN(C(C)C)/C(=C(/C=C/c2ccsc2C)NCc2cnn(C)c2)C1 [US11026923, Example 65]	8.92	8.10	
CC1=NN(C(C)C)/C(=C(/C=C/c2cn(C)nc2C)NCc2cnn(C)c2)C1 [US11026923, Example 61]	6.92	6.26	6.17
COc1ncccc1/C=C/C(NCc1cnn(C)c1)=C1\CC(C)=NN1C(C)C [US11026923, Example 62]	8.62	7.80	7.68
CC1=NN(C(C)C)/C(=C(/C=C/c2ccccc2)NCc2cnn(C)c2)C1 [US11026923, Example 64]	7.92	7.28	7.33
